Experimental data as given in US7524853B2 (Solvay Pharmaceuticals B.V., priority 2003, dated 2009).

How the values were obtained:
Assay type in all cases: cell-based
[1] = target: T1, 17β-hydroxysteroid dehydrogenase type 3 (17β-HSD type 3) (Homo sapiens, UniProt P37058); assay: Inhibition of 17β-HSD type 3 in MCF-7 cells stably expressing the isoenzyme (tritium labeled androstenedione conversion, HPLC); details: MCF7, MCF-7 cells expressing 17β-HSD type 3, 2 nM tritium labeled androstenedione; for inhibition at 1 µM: 1 μM test compound, read-out: % Inhibition HSD3 1 μM; for inhibition at 10 µM: 10 μM test compound, read-out: % Inhibition HSD3 10 μM
T1 construct: expressed in transfected cells; host or cells: MCF-7
T1 sequence (P37058 1-310): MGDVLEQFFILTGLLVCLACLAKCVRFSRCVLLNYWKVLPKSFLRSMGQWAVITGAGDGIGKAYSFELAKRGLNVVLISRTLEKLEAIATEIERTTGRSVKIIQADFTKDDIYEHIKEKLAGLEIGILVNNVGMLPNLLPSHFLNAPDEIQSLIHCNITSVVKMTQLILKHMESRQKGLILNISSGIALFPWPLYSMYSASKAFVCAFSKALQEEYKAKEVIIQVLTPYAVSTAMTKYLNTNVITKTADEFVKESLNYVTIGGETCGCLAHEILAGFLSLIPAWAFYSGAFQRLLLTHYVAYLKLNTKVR
Method in brief: (§1)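 Whole-cell MCF-7 lines, one isoenzyme each; substrate 2 nM ³H-estrone (type 1), ³H-estradiol (type 2) or ³H-androstenedione (type 3) in growth medium + compound at two concentrations. TCA stop, HPLC-radioflow read; % inhibition from reduced conversion vs no-compound control.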

[2] = target: T2, 17β-hydroxysteroid dehydrogenase type 1 (17β-HSD type 1) (Homo sapiens, UniProt P14061); assay: Inhibition of 17β-HSD type 1 in MCF-7 cells stably expressing the isoenzyme (tritium labeled estrone conversion, HPLC); details: MCF7, MCF-7 cells expressing 17β-HSD type 1, 2 nM tritium labeled estrone; for inhibition at 1 µM: 1 μM test compound, read-out: % Inhibition HSD1 1 μM; for inhibition at 10 µM: 10 μM test compound, read-out: % Inhibition HSD1 10 μM
T2 construct: expressed in transfected cells; host or cells: MCF-7
T2 sequence (P14061 1-328): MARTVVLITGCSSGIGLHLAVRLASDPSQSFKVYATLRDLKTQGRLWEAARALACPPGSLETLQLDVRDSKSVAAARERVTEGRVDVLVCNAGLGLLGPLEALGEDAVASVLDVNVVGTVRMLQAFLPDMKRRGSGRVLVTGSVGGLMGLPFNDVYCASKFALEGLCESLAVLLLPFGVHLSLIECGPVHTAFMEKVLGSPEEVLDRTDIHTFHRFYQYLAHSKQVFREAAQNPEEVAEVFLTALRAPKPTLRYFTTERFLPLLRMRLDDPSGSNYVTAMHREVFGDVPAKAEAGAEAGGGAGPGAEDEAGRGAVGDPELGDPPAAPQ
Method in brief: as §1

[3] = target: T3, 17β-hydroxysteroid dehydrogenase type 2 (17β-HSD type 2) (Homo sapiens, UniProt P37059); assay: Inhibition of 17β-HSD type 2 in MCF-7 cells stably expressing the isoenzyme (tritium labeled estradiol conversion, HPLC); details: MCF7, MCF-7 cells expressing 17β-HSD type 2, 2 nM tritium labeled estradiol; for inhibition at 1 µM: 1 μM test compound, read-out: % Inhibition HSD2 1 μM; for inhibition at 10 µM: 10 μM test compound, read-out: % Inhibition HSD2 10 μM
T3 construct: expressed in transfected cells; host or cells: MCF-7
T3 sequence (P37059 1-387): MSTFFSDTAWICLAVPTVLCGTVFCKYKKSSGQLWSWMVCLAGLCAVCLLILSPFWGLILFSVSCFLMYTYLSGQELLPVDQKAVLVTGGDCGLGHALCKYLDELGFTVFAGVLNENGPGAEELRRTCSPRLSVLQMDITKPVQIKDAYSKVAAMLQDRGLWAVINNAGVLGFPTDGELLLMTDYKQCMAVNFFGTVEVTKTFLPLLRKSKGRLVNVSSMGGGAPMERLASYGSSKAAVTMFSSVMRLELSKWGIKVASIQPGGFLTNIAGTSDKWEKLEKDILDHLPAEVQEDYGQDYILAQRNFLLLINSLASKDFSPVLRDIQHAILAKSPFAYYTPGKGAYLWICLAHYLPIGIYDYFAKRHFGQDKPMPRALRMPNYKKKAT
Method in brief: as §1

| Structure (SMILES) | inhibition at 1 µM [1] [%] | inhibition at 10 µM [1] [%] | inhibition at 1 µM [2] [%] | inhibition at 10 µM [2] [%] | inhibition at 1 µM [3] [%] | inhibition at 10 µM [3] [%] |
| --- | --- | --- | --- | --- | --- | --- |
| CCOC(=O)c1nc2sc3c(c2c(=O)n1-c1ccccc1)CCCC3 [No. 40, 4-Oxo-3-phenyl-3,4,5,6,7,8-hexahydro-benzo[4,5]thieno[2,3-d]pyrimidine-2-carboxylic acid ethyl ester] | 3.8 | 16.2 | 15.6 | 25 | 13.8 | 5.3 |
| O=c1c2c3c(sc2nc(-c2cc(O)c(O)c(O)c2)n1Cc1ccccc1)CCCC3 [No. 41, 3-Benzyl-2-(3,4,5-trihydroxyphenyl)-5,6,7,8-tetrahydro-3H-benzo[4,5]thieno[2,3-d]pyrimidin-4-one] | 22.5 | 34.5 | 5.7 | 10 | 17.9 | 17.7 |
| COc1c(O)cc(-c2nc3sc4c(c3c(=O)n2-c2ccccc2)CCCC4)cc1O [No. 42, 3-Phenyl-2-(3,5-dihydroxy-4-methoxyphenyl)-5,6,7,8-tetrahydro-3H-benzo[4,5]thieno[2,3-d]pyrimidin-4-one] | 3.2 | 4 | 26.8 | 56 | -1.9 | -0.5 |
| O=c1c2c3c(sc2nc(-c2cc(O)c(O)c(O)c2)n1-c1ccccc1)CCCC3 [No. 43, 3-Phenyl-2-(3,4,5-trihydroxyphenyl)-5,6,7,8-tetrahydro-3H-benzo[4,5]thieno[2,3-d]pyrimidin-4-one] | -2.5 | -0.9 | 12 | 23.8 | 18 | 15 |
| Cc1nc2sc3c(c2c(=O)n1-c1ccccc1)CCC(Br)C3=O (stereo not drawn) [No. 44, 7-Bromo-2-methyl-3-phenyl-6,7-dihydro-3H,5H-benzo[4,5]thieno[2,3-d]pyrimidine-4,8-dione] | -22.5 | 26.3 | 10.5 | 55.6 | 2.2 | 16.3 |
| Cc1nc2sc3c(c2c(=O)n1-c1ccccc1)CCC(Br)(Br)C3=O [No. 45, 7,7-Dibromo-2-methyl-3-phenyl-6,7-dihydro-3H,5H-benzo[4,5]thieno[2,3-d]pyrimidine-4,8-dione] | -2.2 | 4.1 | -7.7 | -18.3 | 3.5 | 6.5 |
| COc1cc(-c2nc3sc4c(c3c(=O)n2Cc2ccccc2)CCC(Br)C4=O)cc(OC)c1OC (stereo not drawn) [No. 46, 3-benzyl-7-bromo-2-(3,4,5-trimethoxyphenyl)-6,7-dihydro-3H,5H-benzo[4,5]thieno[2,3-d]pyrimidine-4,8-dione] | 31.4 | 37.1 | 32.1 | 72.2 | 44 | 20.9 |
| COc1cc(-c2nc3sc4c(c3c(=O)n2Cc2ccccc2)CCC(Br)C4=O)c(Br)c(OC)c1OC (stereo not drawn) [No. 47, 3-benzyl-7-bromo-2-(2-bromo-3,4,5-trimethoxyphenyl)-6,7-dihydro-3H,5H-benzo[4,5]thieno[2,3-d]pyrimidine-4,8-dione] | 39.7 | 52.2 | 16.1 | 63.2 | 31.9 | 59 |
| COc1cc(-c2nc3sc4c(c3c(=O)n2Cc2ccccc2)CCC(Br)(Br)C4=O)c(Br)c(OC)c1OC [No. 48, 3-benzyl-7,7-dibromo-2-(2-bromo-3,4,5-trimethoxyphenyl)-6,7-dihydro-3H,5H-benzo[4,5]thieno[2,3-d]pyrimidine-4,8-dione] | 33.7 | 23.4 | 27.4 | 36.5 | 0.8 | 25.6 |
| COc1cc(-c2nc3sc4c(O)cccc4c3c(=O)n2Cc2ccccc2)c(Br)c(OC)c1OC [No. 49, 3-Benzyl-2-(2-bromo-3,4,5-trimethoxyphenyl)-8-hydroxy-3H-benzo[4,5]thieno[2,3-d]pyrimidin-4-one] | 12.4 | 52.6 | 24.7 | 86.2 | 20.1 | 36.9 |
| COc1cc(-c2nc3sc4c(OC(C)=O)cccc4c3c(=O)n2Cc2ccccc2)c(Br)c(OC)c1OC [No. 50, Acetic acid 3-benzyl-2-(2-bromo-3,4,5-trimethoxyphenyl)-4-oxo-3,4-dihydro-benzo[4,5]thieno[2,3-d]pyrimidin-8-yl ester] | 32.9 | 75.8 | 34.4 | 65.8 | 32.4 | 39 |
| COc1cc(-c2nc3sc4c(O)c(Br)ccc4c3c(=O)n2Cc2ccccc2)c(Br)c(OC)c1OC [No. 52, 3-benzyl-7-bromo-2-(2-bromo-3,4,5-trimethoxyphenyl)-8-hydroxy-3H-benzo[4,5]thieno[2,3-d]pyrimidin-4-one] | -2.4 | 4.3 | 4.7 | 11.6 | 0.1 | 19.1 |
| COc1cc(-c2nc3sc4c(O)cccc4c3c(=O)n2Cc2ccccc2)cc(OC)c1OC [No. 53, 3-Benzyl-8-hydroxy-2-(3,4,5-trimethoxyphenyl)-3H-benzo[4,5]thieno[2,3-d]pyrimidin-4-one] | 32.2 | 52.7 | 52.2 | 71 | 22.4 | 60 |
| COc1cc(-c2nc3sc4c(OC(C)=O)cccc4c3c(=O)n2Cc2ccccc2)cc(OC)c1OC [No. 54, Acetic acid 3-benzyl-2-(3,4,5-trimethoxyphenyl)-4-oxo-3,4-dihydro-benzo[4,5]thieno[2,3-d]pyrimidin-8-yl ester] | 24.6 | 55.2 | 35.4 | 76.7 | 17 | 59.8 |
| O=c1c2c3c(sc2nc(-c2ccccc2)n1Cc1ccccc1)CCCC3 [No. 56, 3-Benzyl-2-phenyl-5,6,7,8-tetrahydro-3H-benzo[4,5]thieno[2,3-d]pyrimidin-4-one] | 14.7 | 41.9 | 21.3 | 33.2 | 18.8 | 24.5 |
| O=C1CCCc2c1sc1nc(-c3ccccc3)n(Cc3ccccc3)c(=O)c21 [No. 57, 3-Benzyl-2-phenyl-6,7-dihydro-3H,5H-benzo[4,5]thieno[2,3-d]pyrimidine-4,8-dione] | 19.7 | 57.3 | 23 | 47.3 | 17.5 | 28.5 |
| O=C1c2sc3nc(-c4ccccc4)n(Cc4ccccc4)c(=O)c3c2CCC1Br (stereo not drawn) [No. 58, 3-Benzyl-7-bromo-2-phenyl-6,7-dihydro-3H,5H-benzo[4,5]thieno[2,3-d]pyrimidine-4,8-dione] | 16 | 39.4 | 25.5 | 54.9 | 22.5 | 33.9 |
